Experimental data as given in patent publication US20170121344A1 (Siga Technologies, Inc., priority 2009, published 2017).
Where two headings read alike, the source gives them in different places.

System: Dengue-2 (Strain New Guinea C)
Experiment: Viral yield assay against Dengue-2 in Vero cells
Assay type: cell-based, Dengue virus
Settings: Dengue virus, read-out: Activity (EC50 in μM) DENV-2
How it was run: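 Vero cells were infected with dengue virus at an MOI of 0.1, treated with compound or DMSO vehicle, and kept at 37° C. Supernatant virus was harvested 48 hours post infection and titered on Vero cells, with EC50 derived from yield reduction.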

[1] = DENV2, viral yield assay, Vero cells, MOI 0.1, 48 hours post infection

| SMILES | EC50 [1] [µM] | EC50 (DENV2, Vero, 48 h) [µM] |
| --- | --- | --- |
| Cc1ccc(NC(=S)NNC(=O)c2sc3nc(-c4cccs4)cc(C(F)(F)F)c3c2C)cc1 [Compound 410, 1-[[3-methyl-6-(2-thienyl)-4-(trifluoromethyl)thieno[2,3-b]pyridine-2-carbonyl]amino]-3-(p-tolyl)thiourea] | < 5 | – |
| O=c1[nH]cnc2c1sc1nc(-c3cccs3)ccc12 [Compound 412, 7-(thiophen-2-yl)pyrido[3′,2′:4,5]thieno [3,2-d]pyrimidin-4(3H)-one] | 5 to 25 | – |
| Nc1c(C(=O)Nc2ccc(Br)cc2)sc2nc(-c3ccncc3)ccc12 [Compound 416, 3-amino-N-(4-bromophenyl)-6-(4-pyridyl)thieno[2,3-b]pyridine-2-carboxamide] | < 5 | – |
| Cc1ccc2c(N)c(C(=O)Nc3ccccc3C(F)(F)F)sc2n1 [Compound 418, 3-amino-6-methyl-N-[2-(trifluoromethyl)phenyl]thieno[2,3-b] pyridine-2-carboxamide] | – | 5 to 25 |
| Cc1cccc(NC(=O)c2sc3nc(-c4cccs4)ccc3c2N)c1 [Compound 419, 3-amino-N-(m-tolyl)-6-(2-thienyl) thieno[2,3-b]pyridine-2-carboxamide] | – | < 5 |
| Nc1c(C(=O)Nc2cccc(C(F)(F)F)c2)sc2ncccc12 [Compound 420, 3-amino-N-[3-(trifluoromethyl)phenyl] thieno[2,3-b]pyridine-2-carboxamide] | < 5 | – |
| Nc1c(C(=O)Nc2cccc(Br)c2)sc2ncccc12 [Compound 421, 3-amino-N-(3-bromophenyl)thieno[2,3-b] pyridine-2-carboxamide] | 5 to 25 | – |
| Nc1c(C(=O)Nc2ccccc2Br)sc2ncccc12 [Compound 422, 3-amino-N-(2-bromophenyl)thieno[2,3-b] pyridine-2-carboxamide] | < 5 | – |
| Nc1c(C(=O)Nc2ccc(Br)cc2)sc2ncccc12 [Compound 423, 3-amino-N-(4-bromophenyl)thieno[2,3-b] pyridine-2-carboxamide] | < 5 | – |
| Nc1c(C(=O)Nc2ccccc2C(F)(F)F)sc2ncccc12 [Compound 424, 3-amino-N-[2-(trifluoromethyl)phenyl] thieno[2,3-b]pyridine-2-carboxamide] | 5 to 25 | – |
| COc1ccc(NC(=O)c2sc3nc(-c4cccs4)ccc3c2N)c(OC)c1 [Compound 432, 3-amino-N-(2,4-dimethoxyphenyl)-6-(2-thienyl)thieno[2,3-b]pyridine-2-carboxamide] | – | 5 to 25 |
| Nc1c(C(=O)Nc2ccc(Br)cc2)sc2nc(-c3cccnc3)ccc12 [Compound 435, 3-amino-N-(4-bromophenyl)-6-(3-pyridyl)thieno[2,3-b]pyridine-2-carboxamide] | < 5 | – |
| Nc1c(C(=O)Nc2nc3ccccc3s2)sc2nc(-c3cccs3)ccc12 [Compound 436, 3-amino-N-(1,3-benzothiaozl-2-yl)-6-(2-thienyl)thieno[2,3-b]pyridine-2-carboxamide] | – | < 5 |
| Nc1c(C(=O)Nc2cccc(C(F)(F)F)c2)sc2nc(-c3ccncc3)ccc12 [Compound 440, 3-amino-6-(4-pyridyl)-N-[3-(trifluoromethyl)phenyl]thieno[2,3-b] pyridine-2-carboxamide] | 5 to 25 | – |
| COc1ccc(C(F)(F)F)cc1NC(=O)c1sc2nc(-c3cccs3)ccc2c1N [Compound 442, 3-amino-N-[2-methoxy-5-(trifluoromethyl)phenyl]-6-(2-thienyl) thieno[2,3-b]pyridine-2-carboxamide] | < 5 | – |
| Nc1c(C(=O)Nc2ccc(Cl)c(C(F)(F)F)c2)sc2nc(-c3cccs3)ccc12 [Compound 443, 3-amino-N-[4-chloro-3-(trifluoromethyl)phenyl]-6-(2-thienyl) thieno[2,3-b]pyridine-2-carboxamide] | < 5 | – |
| COc1ccc(NC(=O)c2sc3nc(-c4cccs4)ccc3c2N)cc1OC [Compound 444, 3-amino-N-(3,4-dimethoxyphenyl)-6-(2-thienyl)thieno[2,3-b]pyridine-2-carboxamide] | – | < 5 |
| COc1ccc(-c2ccc3c(N)c(C(=O)Nc4ccc(Br)cc4)sc3n2)cc1OC [Compound 451, 3-amino-N-(4-bromophenyl)-6-(3,4-dimethoxyphenyl)thieno[2,3-b]pyridine-2-carboxamide] | < 5 | – |
| Nc1c(C(=O)Nc2cccc(C(F)(F)F)c2)sc2nc(-c3ccc(F)cc3)ccc12 [Compound 456, 3-amino-6-(4-fluorophenyl)-N-[3-(trifluoromethyl)phenyl]thieno[2,3-b] pyridine-2-carboxamide] | < 5 | – |
| Cc1ccc2c(N)c(C(=O)Nc3ccc(OC(F)(F)F)cc3)sc2n1 [Compound 457, 3-amino-6-methyl-N-[4-(trifluoromethoxy)phenyl]thieno[2,3-b] pyridine-2-carboxamide] | 5 to 25 | – |
| COc1ccc(Cl)cc1NC(=O)c1sc2nc(-c3cccs3)ccc2c1N [Compound 460, 3-amino-N-(5-chloro-2-methoxy-phenyl)-6-(2-thienyl)thieno[2,3-b]pyridine-2-carboxamide] | < 5 | – |

| SMILES | EC50 [1] [µM] | EC50 (DENV2, Vero, 48 h) [µM] |
| --- | --- | --- |
| Cc1ccc(F)cc1NC(=O)c1sc2nc(-c3cccs3)ccc2c1N [Compound 463, 3-amino-N-(5-fluoro-2-methyl-phenyl)-6-(2-thienyl)thieno [2,3-b]pyridine-2-carboxamide] | < 5 | – |
| Nc1c(C(=O)Nc2ccccc2Br)sc2nc(-c3ccncc3)ccc12 [Compound 466, 3-amino-N-(2-bromophenyl)-6-(4-pyridyl)thieno[2,3-b]pyridine-2-carboxamide] | 5 to 25 | – |
| Nc1c(C(=O)Nc2ccc(Br)cc2)sc2nc(-c3ccc4c(c3)OCO4)ccc12 [Compound 474, 3-amino-6-(1,3-benzodioxol-5-yl)-N-(4-bromophenyl)thieno[2,3-b]pyridine-2-carboxamide] | < 5 | – |
| Cc1ccccc1NC(=O)c1sc2nc(-c3cccs3)ccc2c1N [Compound 477, 3-amino-N-(o-tolyl)-6-(2-thienyl)thieno [2,3-b]pyridine-2-carboxamide] | – | < 5 |
| Cc1ccc2c(n1)sc1c(=O)n(-c3cccc(Br)c3)nnc12 [Compound 479, 3-(3-bromophenyl)-7-methylpyrido[3′,2′:4,5]thieno[3,2-d] [1,2,3]triazin-4(3H)-one] | < 5 | – |
| Nc1c(C(=O)Nc2ccccc2C(F)(F)F)sc2nc(-c3ccncc3)ccc12 [Compound 480, 3-amino-6-(4-pyridyl)-N-[2-(trifluoromethyl)phenyl]thieno[2,3-b] pyridine-2-carboxamide] | < 5 | – |
| Nc1c(C(=O)Nc2cccc(Br)c2)sc2nc(-c3ccncc3)ccc12 [Compound 481, 3-amino-N-(3-bromophenyl)-6-(4-pyridyl)thieno[2,3-b]pyridine-2-carboxamide] | 5 to 25 | – |
| Nc1c(C(=O)N2CCC[C@H]2C(=O)O)sc2nc(-c3cccs3)ccc12 [Compound 484, 1-[3-amino-6-(2-thienyl)thieno[2,3-b]pyridine-2-carbonyl]pyrrolidine-2-carboxylic acid] | – | < 5 |
| Nc1c(C(=O)Nc2ccccc2OC(F)(F)F)sc2nc(-c3ccncc3)ccc12 [Compound 487, 3-amino-6-(4-pyridyl)-N-[2-(trifluoromethoxy)phenyl]thieno[2,3-b] pyridine-2-carboxamide] | < 5 | – |
| COc1cccc(-c2ccc3c(N)c(C(=O)Nc4cc(OC)ccc4OC)sc3n2)c1 [Compound 496, 3-amino-N-(2,5-dimethoxyphenyl)-6-(3-methoxyphenyl)thieno[2,3-b]pyridine-2-carboxamide] | < 5 | – |
| COc1cccc(-c2ccc3c(N)c(C(=O)Nc4ccc5c(c4)OCCO5)sc3n2)c1 [Compound 499, 3-amino-N-(2,3-dihydor-1,4-benzodioxin-6-yl)-6-(3-methoxyphenyl)thieno[2,3-b] pyridine-2-carboxamide] | < 5 | – |
| COc1ccc(NC(=O)c2sc3nc(-c4ccc(OC)c(OC)c4)ccc3c2N)c(C)c1 [Compound 500, 3-amino-6-(3,4-dimethoxyphenyl)-N-(4-methoxy-2-methyl-phenyl)thieno[2,3-b] pyridine-2-carboxamide] | < 5 | – |
| CCOc1ccccc1NC(=O)c1sc2nc(-c3cccc(OC)c3)ccc2c1N [Compound 501, 3-amino-N-(2-ethoxyphenyl)-6-(3-methoxyphenyl)thieno[2,3-b]pyridine-2-carboxamide] | < 5 | – |
| COc1cccc(-c2ccc3c(N)c(C(=O)Nc4ccc(F)cc4F)sc3n2)c1 [Compound 502, 3-amino-N-(2,4-difluorophenyl)-6-(3-methoxyphenyl)thieno[2,3-b]pyridine-2-carboxamide] | < 5 | – |
| COc1cccc(NC(=O)c2sc3nc(-c4cccc(OC)c4)ccc3c2N)c1 [Compound 503, 3-amino-N,6-bis(3-methoxyphenyl) thieno[2,3-b]pyridine-2-carboxamide] | < 5 | – |
| COc1cccc(-c2ccc3c(N)c(C(=O)Nc4ccccc4OC)sc3n2)c1 [Compound 504, 3-amino-N-(2-methoxyphenyl)-6-(3-methoxyphenyl)thieno[2,3-b]pyridine-2-carboxamide] | < 5 | – |
| COc1cccc(-c2ccc3c(N)c(C(=O)Nc4cccc(SC)c4)sc3n2)c1 [Compound 505, 3-amino-6-(3-methoxyphenyl)-N-(3-methylsulfanylphenyl)thieno[2,3-b] pyridine-2-carboxamide] | < 5 | – |
| COc1cccc(-c2ccc3c(N)c(C(=O)Nc4ccc(OC)c(OC)c4)sc3n2)c1 [Compound 508, 3-amino-N-(3,4-dimethoxyphenyl)-6-(3-methoxyphenyl)thieno[2,3-b]pyridine-2-carboxamide] | – | < 5 |
| CCOc1ccccc1NC(=O)c1sc2nc(-c3ccc(OC)c(OC)c3)ccc2c1N [Compound 509, 3-amino-6-(3,4-dimethoxyphenyl)-N-(2-ethoxyphenyl)thieno[2,3-b]pyridine-2-carboxamide] | < 5 | – |
| COc1cccc(-c2ccc3c(N)c(C(=O)Nc4ccc5c(c4)OCO5)sc3n2)c1 [Compound 511, 3-amino-N-(1,3-benzodioxol-5-yl)-6-(3-methoxyphenyl)thieno[2,3-b]pyridine-2-carboxamide] | < 5 | – |
